Experimental data from patent publication US20260262647A1, “Synergistic Compositions Containing Guanidine” (Thor GmbH, priority 2023, published 2026).

How the values were obtained:
Format in all cases: cell-based
bacteria mixture B = assay: Emulsion paint inoculated once with bacteria mixture B, semiquantitative growth evaluation; design: key: 0: No growth; Minimal growth, 1 to 10 colonies visible over the entire streak; 2: Light growth, maximum 100 colonies; Moderate growth, maximum 300 to 400 colonies; Uniform growth, >400 colonies, single colonies still clearly recognizable; 5: Heavy growth, too many colonies to count, but no growth over the entire streak; 6: Full growth, barely any single colonies still apparent, growth over the entire streak; settings: +6000 ppm guanidine hydrochloride (3708 ppm guanidine)
Source text: In examples 35 to 38 below, synergistic interaction between guanidine and antimicrobial substances with respect to microbial infestation was studied using an emulsion paint and a laundry detergent or cleaning composition by adding particular amounts of guanidine salts and isothiazolinones and examining their stability against microbial infestation: […] The laundry detergent was a heavy-duty laundry detergent without preservatives (pH 8.1), and the cleaning composition was an all-purpose detergent without preservatives (pH 7.6), each likewise made in the laboratory, without addition of the otherwise usual conventional preservatives. To each paint was added—individually and in combination—particular concentrations of guanidinium hydrochloride, benzisothiazolinone (BIT), and a mixture of chloromethylisothiazolinone (CIT) and methylisothiazolinone (MIT). The laundry detergent and the cleaning composition were admixed with particular concentrations of guanidinium hydrochloride and benzisothiazolinone (BIT). The resultant batches of the paint thus prepared were inoculated with a mixture of different bacteria species (bacteria mixture B); the batches of the laundry detergent and cleaning compositions thus prepared were inoculated with a yeast mixture. • Pseudomonas spp. (Pseudomonas oleovorans group) DSM 33933 • Pseudomonas aeruginosa DSM 33935 • Pseudomonas oleovorans DSM 33936 • Pseudomonas spec. DSM 33937 • Pseudomonas aeruginosa DSM 33938 […] The cell suspension of the bacteria mixture was produced by growing the individual bacteria at 30° C. for 24 h in liquid culture on a shaker. The growth medium used for the bacteria was Müller-Hinton liquid medium. After growing, the individual liquid cultures were centrifuged, and the cells were resuspended in physiological saline solution. […] The cell count of the inoculum was determined in each case by chamber counting. […] The streaked agar plates were then incubated at 30° C. for 48 hours (bacteria) or at 25° C. for 72 hours (yeasts). After incubation, the bacterial or yeast colonies that have grown on the agar plates were visually evaluated and quantified according to the following scheme: [table]

yeast mixture = assay: Laundry detergent inoculated once with yeast mixture, semiquantitative growth evaluation; design: key: 0: No growth; Minimal growth, 1 to 10 colonies visible over the entire streak; 2: Light growth, maximum 100 colonies; Moderate growth, maximum 300 to 400 colonies; Uniform growth, >400 colonies, single colonies still clearly recognizable; 5: Heavy growth, too many colonies to count, but no growth over the entire streak; 6: Full growth, barely any single colonies still apparent, growth over the entire streak; settings: Example 37, laundry detergent, +8000 ppm guanidine hydrochloride (4944 ppm guanidine)
Source text: In examples 35 to 38 below, synergistic interaction between guanidine and antimicrobial substances with respect to microbial infestation was studied using an emulsion paint and a laundry detergent or cleaning composition by adding particular amounts of guanidine salts and isothiazolinones and examining their stability against microbial infestation: […] The laundry detergent was a heavy-duty laundry detergent without preservatives (pH 8.1), and the cleaning composition was an all-purpose detergent without preservatives (pH 7.6), each likewise made in the laboratory, without addition of the otherwise usual conventional preservatives. To each paint was added—individually and in combination—particular concentrations of guanidinium hydrochloride, benzisothiazolinone (BIT), and a mixture of chloromethylisothiazolinone (CIT) and methylisothiazolinone (MIT). The laundry detergent and the cleaning composition were admixed with particular concentrations of guanidinium hydrochloride and benzisothiazolinone (BIT). The resultant batches of the paint thus prepared were inoculated with a mixture of different bacteria species (bacteria mixture B); the batches of the laundry detergent and cleaning compositions thus prepared were inoculated with a yeast mixture. • Pichia manshurica DSM 12249 • Rhodotorula mucilaginosa DSM 12248 • Candida boidinii DSM 13622 • Candida albicans DSM 1386 […] Further steps for establishment of a cell count of the inoculum suspension of 10^8/ml were effected analogously to the production of the bacteria suspension. […] The streaked agar plates were then incubated at 30° C. for 48 hours (bacteria) or at 25° C. for 72 hours (yeasts). After incubation, the bacterial or yeast colonies that have grown on the agar plates were visually evaluated and quantified according to the following scheme: [table]

[1] = tested on: Pseudomonas putida DSM 115323; assay: Minimum inhibitory concentrations and synergy index in Müller-Hinton broth
Description: Test organisms used were Gram-negative bacterial species from the group of pseudomonads, Pseudomonas putida DSM 115323 and Pseudomonas spec. DSM 115322. For this purpose, mixtures with different concentrations of the respective active substances were prepared and tested for their effect on the pseudomonads. The test was run in Müller-Hinton broth MHB with a cell density of 10^6 microbes per ml. When organic acids are used as a combination partner with the guanidine, MHB was adjusted to pH 5.5.
The incubation was run in microplates at 30° C. for 48 hours. After 48 hours, the batches were evaluated for turbidity resulting from growth, and optical density was additionally determined photometrically. In this way, the minimum inhibitory concentrations (MICs) of the two actives were determined individually and in combination.
The calculation was done according to the standard method of F. C. Kull et al., Applied Microbiology, vol. 9 (1961), p. 538.
This involves calculating the synergy index (SI) by the following formula:
[formula] • Qa=concentration of component A in the A+B mixture • QA=concentration of component A as the sole biocide • Qb=concentration of component B in the A+B mixture • QB=concentration of component B as the sole biocide
If the synergy index is greater than 1, this means that there is antagonism. If the synergy index assumes the value 1, this means that the effect of the two biocides/compounds is additive. If the synergy index assumes a value of less than 1, this means that there is synergism between the two biocides/compounds.

Work on N=C(N)N [guanidine] yielded a Bacterial growth (bacteria mixture B; Example 35, emulsion paint, Day 1) of 6, a Bacterial growth (bacteria mixture B; Example 35, emulsion paint, Day 6) of 6 and a Bacterial growth (bacteria mixture B; Example 36, emulsion paint, Day 1) of 6. The Bacterial growth (bacteria mixture B; Example 36, emulsion paint, Day 6) was 6, the Bacterial growth (yeast mixture; Day 1) was 6 and the Bacterial growth (yeast mixture; Day 3) was 6. The “QA: Concentration of guanidine as the sole agent that shows an endpoint” value ([1]; guanidine (added as guanidine hydrochloride) alone, 48 hours at 30° C.) was 6180 ppm and the “Synergy index Qa/QA + Qb/QB” value ([1]; guanidine and CIT, Qa, Qb) was 1.00.
